Experimental data: patent US20070275911A1, “Targeted Drug-Formaldehyde Conjugates and Methods of Making and Using the Same” (priority 2003, published 2007)
Where two headings read alike, the source gives them in different places.

Experiments:
Format in all cases: cell-based, human
[1] = system: MCF-7/Adr cells; assay: Uptake and release by flow cytometry; conditions: for drug uptake (DOX fluorophore): 500 nM, 20, 40 and 60 min
Protocol: Uptake and release of DOX-TEG-TAM: The uptake of 500 nM DOX, DOXSF, and DOX-TEG-TAM following treatment for various times up to 1 h was assessed by flow cytometry. […] The release of drugs following a 500 nM treatment for 1 h was assessed at various times out to 6 h post-treatment. Resistant MCF-7/Adr cells were first assessed as they provide a means to evaluate the AEBS targeting hypothesis to explain the dramatic improvement in tumor cell growth inhibition observed for DOX-TEG-TAM relative to DOXSF and clinical DOX. […] In all three cases the drug fluorescence decreased dramatically up to 1 h post-treatment, as free drug was transported from the cell. […] The enhanced uptake and retention of DOX-TEG-TAM relative to DOX and DOXSF parallels the growth inhibition data of Example 4 and provides evidence in favor of the targeting hypothesis involving interaction with AEBS.
Uptake and release of DOX, DOXSF, and DOX-TEG-TAM: The uptake and release of DOX-TEG-TAM in breast cancer cells relative to DOX and untargeted DOXSF was performed as described with modifications. Breast cancer cells in log phase growth were dissociated with trypsin-EDTA, counted, resuspended in media at 1.5×10^5 cells/mL, and plated into six well plates (450,000 cells/well) and allowed to adhere overnight. The cells were treated with 0.5 μM DOX, DOXSF, or DOX-TEG-TAM for various amounts of time (20 min, 40 min, and 60 min). Drug treatment was accomplished by addition of 30 μL of 100× drug solution (50 μM) to 3 mL of media which was mixed and immediately added to the cells. For each time point, the media was removed, cells were trypsinized, and trypsinization was quenched with 3 mL phenol red-free RPMI 1640 media (no serum) at 4° C. Cells were pelleted by centrifugation at 300 g for 5 min at 10° C. The supernatant was decanted and the cells were re-suspended in 1 mL serum- and phenol red-free RPMI 1640 media and placed on ice.
For drug retention samples, the cells were treated for 1 h with 0.5 μM DOX, DOXSF, or DOX-TEG-TAM. Following drug treatment, the media was removed and replaced with 3 mL fresh, 37° C., full (containing serum and phenol red indicator) cell media and the cells were incubated for various times (0.5 h, 1 h, 3 h, and 6 h). Following the allotted release times, the cells were prepared as described above. […]
The extent of drug uptake and retention was measured by flow cytometry. Cells were analyzed with excitation at 488 nm (15 mW Ar ion laser), with emission monitored between 570 and 600 nm. Instrument settings were optimized for each cell line and held constant for all experiments; 10,000 cells were analyzed for anthracycline fluorescence. The data are presented as the mean fluorescence for each condition with the background, drug-free cell fluorescence subtracted.

[2] = system: MCF-7; assay: Cytotoxicity, crystal violet colony assay (Example 1); conditions: for IC50: MCF-7, 4 h treatment, read-out: IC50 cancer cell growth inhibition
Protocol: (§1) This cell suspension was dispensed in 200 μL aliquots into 96-well tissue culture plates. Plates were then incubated for 24 h at 37° C. in a humidified atmosphere of 5% CO2 and 95% air. The medium was replaced with 180 μL of growth medium prior to addition of the prodrug. Doxsaliform was dissolved in DMSO containing 1% glacial acetic acid at concentrations ranging from 1 mM to 10 mM and sterile-filtered through a 0.45 μm nylon centrifuge filter. The concentration was then corrected by measuring the solution absorbance at 480 nm (ε=11 500 L/(mol·cm). Serial dilutions (1:10) were made in sterile DMSO to yield seven solutions of decreasing drug concentration at 100× the respective working concentrations. The resulting solutions were individually diluted 1:10 in RPMI 1640; 20 μL of the resulting 10× solution was immediately added to the appropriate lane of cells. Additionally, two lanes were treated with 20 μL growth medium containing 10% sterile DMSO and one lane was treated with 200 μL of 1.5 M Tris buffer. The cells were incubated at 37° C. for 4 h, at which time the drug solutions were replaced with 200 μL of fresh growth medium. […] The extent of colony formation was determined using a crystal violet staining assay.
(§2) The biological activities of several of the N-Mannich base derivatives were determined by their in vitro cytotoxicity against MCF-7 and MCF-7/ADR human breast cancer derived cell lines. While MCF-7 cells are sensitive to doxorubicin, the MCF-7/ADR cell line is an MCF-7 derivative which is characterized by its marked resistance to doxorubicin.

[3] = system: MCF-7/ADR; assay: as above; conditions: for IC50: 4 h treatment, read-out: IC50 cancer cell growth inhibition
Protocol: as §1, §2

[4] = system: MDA-MB-435 cells; assay: Uptake of DOX, DOXSF and acyclic-RGD-4C-DOXSF by flow cytometry; conditions: for RFU with 100 nM drug / RFU with 500 nM drug / RFU with 1000 nM drug: no additional Mn2+
Protocol: MDA-MB435 breast cancer cells in log phase growth were dissociated with trypsin-EDTA, counted, resuspended in media at 2×10^5 cells/mL, and plated into six-well plates (5.0×10^5 cells/well) and allowed to adhere overnight. Drug solutions of DOX, DOXSF, and ayclic-RGD-4C-DOXSF were prepared in DMSO with 1% acetic acid at 50 μM. Before treatment with drug, cell media was removed, cells were washed with HBSS (0.5 mL), and then fresh cell media, with or without 500 μM Mn^2+, was placed into the wells (2 mL). […] For each time point, the cell media was removed, cells were washed with HBSS, trypsinized, and trypsinization was quenched with 5 mL of cell media at 4° C. Cells were pelleted by centrifugation at 200 g for 5 min at 10° C. The supernatant was decanted, and the cells were resuspended in 5 mL of D-PBS at 4° C., repelleted, resuspended in 2 mL of D-PBS at 4° C., and placed on ice. […] The amount of drug uptake was measured by flow cytometry. Cells were analyzed with excitation at 488 nm (15 mW Ar ion laser), with emision monitored between 570 and 600 nm. Instrument settings were optimized for the cell line and held constant for all experiments; 10,000 cells were analyzed for each sample's anthracycline fluorescence. The data are presented as the mean fluorescence for each condition divided by the background, drug-free mean fluorescence.
Concentration of targeted drug relative to DOX and DOXSF in cells was determined from emission of the DOX fluorophore.

Structure (SMILES)	drug uptake (DOX fluorophore) [1]	drug retention ([1]; 6 h after 1 h treatment with 500 nM)	IC50 ([2]; Homo sapiens, MCF7) [nM]	IC50 ([3]; Homo sapiens, NCI/ADR-RES) [nM]	RFU with 100 nM drug ([4]; 30 min) [RFU]	RFU with 500 nM drug ([4]; 30 min) [RFU]	RFU with 1000 nM drug ([4]; 30 min) [RFU]	fold uptake more than acyclic-RGD-4C-DOXSF ([4]; 1 h drug treatment) [fold]	RFU with 100 nM drug ([4]; 4 h) [RFU]	RFU with 500 nM drug ([4]; 4 h) [RFU]	RFU with 1000 nM drug ([4]; 4 h) [RFU]	IC50 [2] [nM]	DOX/doxsaliform ([2]; MCF-7, fold increase in cytotoxicity, 4 h drug treatment)	IC50 [3] [nM]	DOX/doxsaliform ([3]; fold increase in cytotoxicity, 4 h drug treatment)	fold uptake higher than acyclic-RGD-4C-DOXSF and DOX ([4]; 4 h, 500 nM) [fold]
CC/C(=C(/c1ccc(O)cc1)c1ccc(OCCN(C)CCOCCOCCO/N=C/c2ccc(O)c(C(=O)NCN[C@H]3C[C@H](O[C@H]4C[C@](O)(C(=O)CO)Cc5c(O)c6c(c(O)c54)C(=O)c4c(OC)cccc4C6=O)O[C@@H](C)[C@H]3O)c2)cc1)c1ccccc1 [11c, E/Z-N-(2-Hydroxy-5-{[2-(2-{2-[(2-{4-[1-(4-hydroxy-phenyl)-2-phenyl-but-1-enyl]-phenoxy}-ethyl)-methyl-amino]-ethoxy}-ethoxy)-ethoxyimino]-methyl}-benzamide)-doxorubicin]	almost twice as much	maintained a higher level of drug retention relative to DOX and DOXSF	–	–	–	–	–	–	–	–	–	–	–	–	–	–
COc1cccc2c1C(=O)c1c(O)c3c(c(O)c1C2=O)C[C@@](O)(C(=O)CO)C[C@@H]3O[C@H]1C[C@H](N)[C@H](O)[C@H](C)O1 [doxorubicin, reference compound]	one relative fluorescent unit	–	300	8000	1.23	2.12	3.21	3	1.90	5.88	12.03	–	–	–	–	–
COc1cccc2c1C(=O)c1c(O)c3c(c(O)c1C2=O)C[C@@](O)(C(=O)CO)C[C@@H]3O[C@H]1C[C@H](NCNC(=O)c2ccccc2O)[C@H](O)[C@H](C)O1 [doxsaliform, N-(2-Hydroxybenzamido-methyl)-doxorubicin]	one relative fluorescent unit	–	–	–	1.88	5.55	9.23	–	3.23	13.25	24.51	80	4	800	10	2
